Series [1] in a line: Daily dosing of IRX4204 free acid in adult human. It counts as in vivo.
Series [2] concerns RAR/RXR. Briefly: Activation of non-permissive RAR/RXR heterodimer. It counts as cell-based.
Series [3] deals with PPAR/RXR. Kind of series: Activation of PPAR/RXR heterodimer. The format is cell-based. As to conditions: permissive heterodimer.
Series [4] deals with LXR/RXR. Briefly: Activation of LXR/RXR heterodimer. The format is cell-based. The following applies: permissive heterodimer.
Series [5] has as its system RXR homodimers. Kind of series: Activation of RXR homodimers. The format is cell-based.
Series [6] has as its system Her2+ AU565 human breast cancer cell line. Kind of series: Growth inhibition of AU565 cells, nuclei count. The following applies: paclitaxel 2.5, 5 or 10 nM, IRX4204 10, 100 or 1000 nM, 6-10 days. It counts as cell-based. How it is done:
After 6-10 days of treatment, cells were fixed with 4% paraformaldehyde. Nuclei were stained with DAPI, imaged using ImageXpress® Pico (Molecular Devices) and counted using CellReporterXpress® Analysis Software. Each data point represents the average of six replicates.
To assess whether the increased inhibition from the combination of agents was additive or synergistic, the Combination Index (CI) was calculated using the computational program CompuSyn (ComboSyn, Inc.).

In series [7] the target is RARα (Homo sapiens, UniProt P10276). The following applies: α isoform.
For series [8], the target named is RARβ (Homo sapiens, UniProt P10826). The following applies: β isoform.
Series [9] has as its target RARγ (Homo sapiens, UniProt P13631). The following applies: γ isoform.
In series [10] the test system is FXR/RXR. Kind of series: Activation of FXR/RXR heterodimer. As to conditions: permissive heterodimer.
Series [11] deals with Nurr1/RXR heterodimer. Kind of series: Activation of Nurr1/RXR heterodimer. The following applies: permissive heterodimer.
A short description of series [12]: Systemic concentrations after oral dosing in humans.
Series [13] deals with PPAR/RXR, FXR/RXR, or LXR/RXR. As to conditions: cited from earlier work.
For series [14], the system named is NSCLC (non-small cell lung cancer). The following applies: cited from earlier work.

“Also recorded” adds a separate entry of the source.

RARγ, sequence (P13631 whole entry, species assumed, canonical isoform): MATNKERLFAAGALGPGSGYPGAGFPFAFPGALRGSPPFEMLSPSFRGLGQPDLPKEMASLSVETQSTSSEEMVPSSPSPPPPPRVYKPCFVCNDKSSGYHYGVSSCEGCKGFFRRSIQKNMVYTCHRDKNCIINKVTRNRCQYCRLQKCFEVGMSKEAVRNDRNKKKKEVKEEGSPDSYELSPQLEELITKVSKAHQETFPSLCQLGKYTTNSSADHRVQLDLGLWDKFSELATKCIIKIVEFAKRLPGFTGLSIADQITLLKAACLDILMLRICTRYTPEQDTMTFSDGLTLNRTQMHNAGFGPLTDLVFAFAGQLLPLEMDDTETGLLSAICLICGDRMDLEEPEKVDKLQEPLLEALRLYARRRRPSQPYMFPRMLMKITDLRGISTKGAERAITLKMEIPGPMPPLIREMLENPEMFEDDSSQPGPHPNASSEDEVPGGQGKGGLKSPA
RARα, sequence (P10276 whole entry, species assumed, canonical isoform): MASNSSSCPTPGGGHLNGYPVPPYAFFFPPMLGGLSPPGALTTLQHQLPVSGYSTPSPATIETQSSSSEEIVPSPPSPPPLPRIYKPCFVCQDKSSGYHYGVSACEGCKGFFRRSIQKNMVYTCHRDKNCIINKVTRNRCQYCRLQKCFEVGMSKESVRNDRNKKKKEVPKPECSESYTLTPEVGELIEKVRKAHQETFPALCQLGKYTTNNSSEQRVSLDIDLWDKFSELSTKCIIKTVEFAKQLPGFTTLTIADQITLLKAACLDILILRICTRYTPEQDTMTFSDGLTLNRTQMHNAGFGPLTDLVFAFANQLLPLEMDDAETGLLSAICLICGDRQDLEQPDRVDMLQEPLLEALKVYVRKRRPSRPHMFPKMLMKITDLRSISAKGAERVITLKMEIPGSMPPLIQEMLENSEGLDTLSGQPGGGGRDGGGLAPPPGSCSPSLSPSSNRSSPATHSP
RARβ, sequence (P10826 whole entry, species assumed, canonical isoform): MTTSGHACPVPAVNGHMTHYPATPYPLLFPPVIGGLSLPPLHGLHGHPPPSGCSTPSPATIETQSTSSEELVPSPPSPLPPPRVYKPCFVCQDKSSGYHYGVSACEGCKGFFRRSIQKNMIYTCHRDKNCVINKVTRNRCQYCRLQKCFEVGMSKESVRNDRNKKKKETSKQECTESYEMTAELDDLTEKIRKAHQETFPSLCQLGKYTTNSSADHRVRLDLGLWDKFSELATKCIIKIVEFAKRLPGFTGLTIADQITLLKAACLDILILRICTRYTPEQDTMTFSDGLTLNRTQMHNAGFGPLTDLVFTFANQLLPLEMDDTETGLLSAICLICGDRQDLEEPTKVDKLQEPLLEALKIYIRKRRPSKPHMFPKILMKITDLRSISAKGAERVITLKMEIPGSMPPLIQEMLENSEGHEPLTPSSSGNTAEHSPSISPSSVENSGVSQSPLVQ

On to `CC(/C=C/[C@@H]1C[C@]1(C)c1ccc2c(c1)C(C)(C)CCC2(C)C)=C\C(=O)O` [IRX4204, 3,7-dimethyl-6(S),7(S)-methano,7-[1,1,4,4-tetramethyl-1,2,3,4-tetrahydron-aphth-7-yl]2(E), 4(E) heptadienoic acid], for which the hypothyroidism entry is “does not result in hypothyroidism” in series [1] (10 mg/day free acid) and “may induce a mild hypothyroidism” in series [1] (20 mg/day free acid). In [2], the “activation of RAR/RXR heterodimer” value was “does not activate”. Besides, in series [3], the “activation of PPAR/RXR heterodimer” value is on record as “does not activate”. The “activation of LXR/RXR heterodimer” value in series [4] was “does not activate”. In series [5], the “activation of RXR homodimers” value is listed as “specifically activate”. For the same compound, the “growth inhibition as sole agent” value in series [6] was “sensitive; also recorded: near maximal effect”. Besides, the results for the “RAR EC10 (concentration effective to cause a 10% of maximal activation of the RAR)” value in series [7], in series [8] and in series [9] were 0.3 µM, 0.2 µM and 0.2 µM, respectively. Moreover, the “activation of FXR/RXR heterodimer” value in [10] is reported as “does not activate”. In series [11], the “activation of Nurr1/RXR heterodimer” value was “specifically activates”. In addition, the systemic concentrations result in [12] (oral dosage 0.01 to 0.02 mg/m^2/day, estimated) is listed as “at least 0.1 nM”; in [12] (oral dosage 20 mg/m^2/day, based on studies in humans) it was “below 200 nM”.
Regarding `Cc1cc2c(cc1C1(c3ccc(C(=O)O)cn3)CC1)C(C)(C)CCC2(C)C` [LGD268], the “activation of one or more of PPAR/RXR, FXR/RXR, or LXR/RXR” value in series [13] is listed as “activates one or more of PPAR/RXR, FXR/RXR, or LXR/RXR”.
`C=C(c1ccc(C(=O)O)cc1)c1cc2c(cc1C)C(C)(C)CCC2(C)C` [TARGRETIN, bexarotene]: the “survival in pivotal Phase III clinical study” value in series [14] (NSCLC) is listed as “did not show increased survival”. For the same compound, the “results of Phase II studies” value in [14] (several Phase II studies in NSCLC) is reported as “Encouraging results”.
Turning to `CC(=O)O[C@H]1C(=O)[C@@]2(C)[C@H]([C@H](OC(=O)c3ccccc3)[C@]3(O)C[C@H](OC(=O)[C@H](O)[C@@H](NC(=O)c4ccccc4)c4ccccc4)C(C)=C1C3(C)C)[C@]1(OC(C)=O)CO[C@@H]1C[C@@H]2O` [paclitaxel, Paclitaxel, reference compound], the “growth inhibition as sole agent” value in [6] is on record as “sensitive”.

Values taken from patent US11896558B2, “Use of an RXR agonist and taxanes in treating Her2+ cancers” (Io Therapeutics, Inc., priority 2021, dated 2024).
